Test results as given in patent US7112715B2, “Transgenic mouse for targeted recombination mediated by modified Cre-ER” (Gie-Cerbm, Centre Europeen de Recherche en Biologie et en …, priority 2000, dated 2006).

Experiments:
[1] = tested on: skin papilloma formation induced by DMBA/TPA; assay: Antitumoral effect of topical retinoic acid on DMBA/TPA-induced skin papilloma; format: in vivo, mouse; settings: for average number of tumors: ~25 weeks of DMBA/TPA treatment
Procedure: (§1) A single dose of 7,12-dimethylbenz(a)anthracene (DMBA) (5 μg in 100 μl acetone) was applied on the dorsal skin of 10–14 week old mice, 7 weeks before or 16 days after the first Tam or oil (vehicle) treatments. 12-0-tetradecanoylphorbol-13-acetate (TPA) (5 μg in 200 μl acetone) was applied twice a week for 25 to 30 weeks, starting one week after DMBA application. CT and RXRα^ep−/− mice were shaved 7 and 2 days before DMBA treatment, and every second week for 30 and 15 weeks, respectively. 8 weeks after DMBA treatment, all-trans retinoic acid (t-RA, 20 nmoles in ethanol) or vehicle was topically applied 15 min before each TPA application. • 1.10—Determination of the number and size of the tumors
(§2) The length of the papillomas and the diameter of the melanocytic were measured with a Vernier calliper on isofluorane anesthesised mice.

[2] = tested on: melanocytic growths; assay: Melanocytic growths and lymph node melanocytes after DMBA or DMBA/TPA treatment of CT and RXRα^ep−/− mice; format: in vivo, mouse; settings: for mice with enlarged and pigmented subiliac lymph nodes: 30 weeks
Procedure: A. Dorsal view of CT (K14-Cre-ER^T2(0/0)/RXRα^L2/L2) (left) and RXRα^ep−/− (right) mice 25 weeks after DMBA treatment. Arrows point to some or the melanocytic growths. B. Number of melanocytic growths in skin of CT and RXRα^ep−/− mice 30 weeks after DMBA and DMBA/TPA treatments, as indicated. Values are expressed as mean +/−SEM (n=6). *, p<0.05; ***, p<0.001, C. Size distribution of melanocytic growths in CT and RXRα^ep−/− mice. The number of 1–2 and 2–4 mm melanocytic growths was determined on CT and RXRα^ep−/− mice, 30 weeks after DMBA and DMBA/TPA treatments, as indicated. Values are expressed as mean +/−SEM (m=6).
Photograph of subiliac lymph nodes from CT (a and e) and RXRα^ep−/− (b and f) mice taken 30 weeks after DMBA and DMBA/TPA treatment, respectively. Hematoxylin and eosin stained 5 μm paraffin sections of CT (c and g) and RXRα^ep−/− (d and h) mice after DMBA and DMBA/TPA treatments, respectively. Scale bar, 33 μm.
Subiliac lymph nodes were isolated 30 weeks after DMBA application, fixed in 4% paraformaldehyde, photographed and embedded in paraffin. 5 μm-thick sections were stained with hematoxylin and eosin. • 1.8—Assay of blood parameters
as §1, §2

[3] = tested on: fusion protein between the recombinase Cre and the ligand-binding domain of the mutated human nuclear estrogen receptor; settings: varies between a few percents and 80%; five infections of 8 mg; cited from earlier work
[4] = target: T1, Cre-ER^T3 (Homo sapiens, UniProt P03372, L544A/M543A); settings: K5-Cre-ER^T3 mice; OHT dose 0.001 mg; day 2
Procedure: (§3) Immunohistochemistry of the chimeric Cre recombinase on sections of the epidermis of K5-Cre-ER^T2 and K5-Cre-ER^T3 mice treated either with 0.1 mg, 0.01 mg or 0.001 mg of OHT and analyzed two days (D 2) after the start of the treatment (D 0). The red color corresponds to labeling with the anti-Cre antibody directed against the Cre protein, and the Cyan color corresponds to DAPI.
(§4) After fixing in 2% paraformaldehyde, frozen sections of 10 μm are blocked in 5% normal goat serum (Vector Laboratories) incubated with the rabbit polyclonal antibody anti-MK6 (Babco). After washing in PBS/0.1% Tween 20, the sections are incubated with the donkey anti-rabbit IgG antibody conjugated with CY3 (Jackson Immuno Research) and then mounted in the Vectashield medium (Vector Laboratories) containing DAPI (4′,6-diamidino-2-phenylindole dihydrochloride; Boehringer Mannheim) (Brocard et al., 1997). The anti-Cre antibodies are used according to Indra et al. (1999). • 1.6—Immunohistochemistry
(§5) The sensitivity to OHT was tested in a first instance by analyzing the intracellular location of the chimeric proteins.

[5] = target: Cre-ER^T2 (Homo sapiens, UniProt P03372, G400V/L544A/M543A); settings: K5-Cre-ER^T2 mice; OHT dose 0.001 mg; day 2
Procedure: as §3, §4, §5

[6] = target: T1, Cre-ER^T3; settings: 1 and 0.1 mg of OHT; day 15
Procedure: Activity of β-galactosidase on sections of the epidermis of the tail of K5-Cre-ER^T2(tg/0)/Rosa^f1/1 and K5-Cre-ER^T3(tg/0)/Rosa^f1/+ mice treated with 1 mg, 0.1 mg, 0.01 mg and 0.001 mg of QHT. The analyses are carried out on the fifteenth day after the start of the treatment (D0).
as §5

[7] = target: mouse ER LBD (mER) G525R (Mus musculus, UniProt P19785, G525R); settings: cited from earlier work
Chain of mouse ER LBD (mER) G525R (P19785 whole entry G525R, the tested form may be a part): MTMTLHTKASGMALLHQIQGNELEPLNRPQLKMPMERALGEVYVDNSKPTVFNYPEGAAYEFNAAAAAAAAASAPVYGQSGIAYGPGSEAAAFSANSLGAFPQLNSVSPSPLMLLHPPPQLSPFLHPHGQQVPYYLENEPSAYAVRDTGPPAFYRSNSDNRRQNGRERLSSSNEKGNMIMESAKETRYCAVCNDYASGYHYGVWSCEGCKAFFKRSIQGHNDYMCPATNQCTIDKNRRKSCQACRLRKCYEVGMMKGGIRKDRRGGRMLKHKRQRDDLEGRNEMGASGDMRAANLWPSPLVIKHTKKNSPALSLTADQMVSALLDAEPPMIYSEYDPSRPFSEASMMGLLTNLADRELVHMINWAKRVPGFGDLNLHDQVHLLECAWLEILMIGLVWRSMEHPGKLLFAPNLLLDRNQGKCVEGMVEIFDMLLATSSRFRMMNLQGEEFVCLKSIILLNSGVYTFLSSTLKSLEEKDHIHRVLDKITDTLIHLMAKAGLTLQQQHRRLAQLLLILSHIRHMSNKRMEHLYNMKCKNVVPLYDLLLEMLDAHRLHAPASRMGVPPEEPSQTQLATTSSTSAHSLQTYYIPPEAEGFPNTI

T1 sequence (P03372 with tags, fused parts or gaps M543A/L544A): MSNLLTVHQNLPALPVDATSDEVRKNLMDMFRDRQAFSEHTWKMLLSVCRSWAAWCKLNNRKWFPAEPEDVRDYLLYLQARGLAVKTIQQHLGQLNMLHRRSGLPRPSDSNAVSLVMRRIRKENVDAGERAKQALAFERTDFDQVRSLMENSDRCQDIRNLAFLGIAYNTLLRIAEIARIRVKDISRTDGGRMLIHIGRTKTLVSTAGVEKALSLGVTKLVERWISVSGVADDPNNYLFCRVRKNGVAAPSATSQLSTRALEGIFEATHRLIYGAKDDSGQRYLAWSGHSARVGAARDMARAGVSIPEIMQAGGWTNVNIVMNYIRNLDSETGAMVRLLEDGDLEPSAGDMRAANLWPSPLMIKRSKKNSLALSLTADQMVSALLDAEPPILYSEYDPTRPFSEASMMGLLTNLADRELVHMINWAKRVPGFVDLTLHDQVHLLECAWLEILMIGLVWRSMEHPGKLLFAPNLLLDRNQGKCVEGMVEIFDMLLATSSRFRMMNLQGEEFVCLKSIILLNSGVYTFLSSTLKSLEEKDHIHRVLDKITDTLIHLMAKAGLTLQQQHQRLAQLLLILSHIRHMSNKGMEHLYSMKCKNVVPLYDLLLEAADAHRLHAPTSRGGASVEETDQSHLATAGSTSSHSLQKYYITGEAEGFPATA
Chain of Cre-ER^T2 (P03372 with tags, fused parts or gaps G400V/M543A/L544A): as the sequence (P03372 with tags, fused parts or gaps M543A/L544A) above, with G465V counted along it

For `CC1=C(/C=C/C(C)=C/C=C/C(C)=C/C(=O)O)C(C)(C)CCC1` [t-RA, all-trans retinoic acid], the tumor formation ([1]; CT mice) was “efficiently inhibited”, the “size of the papilloma after treatment” value ([1]; CT mice, 25 weeks of RA treatment, from 2–3 mm, in 3 out of 8 papillomas of 6 mice) was 1 mm and the “size of the tumors” value ([1]; RA treated CT mice) was “below 2 mm”. The “average number of tumors” value ([1]; RA treated CT mice) was 1, the “tumors larger than 12 mm” value ([1]; RA treated RXRα^ep−/− mice) was about 11% and the “average number of tumors” value ([1]; RA treated RXRα^ep−/− mice) was about 17. For the same compound, the “change in size of the papilloma” value ([1]; RXRα^ep−/− mice) was “no decrease in size”, the “number and size of melanocytic growths, RXRα^ep−/− compared to CT mice” value ([1]; after RA treatment) was “increased” and the “skin papilloma formation induced by DMBA/TPA” value ([1]; topical, female and male wild-type 129Sv) was “efficiently blocked”.

In the case of `Cc1c2ccccc2c(C)c2c1ccc1ccccc12` [DMBA, 7,12-dimethylbenz(a)anthracene], the “induction of melanocytic growths, RXRα^ep−/− versus CT mice” value ([2]; DMBA alone) was about 7 fold, the “mice with enlarged and pigmented subiliac lymph nodes” value ([2]; DMBA, CT mice) was 0/4 and the “mice with enlarged and pigmented subiliac lymph nodes” value ([2]; DMBA, RXRα^ep−/− mice) was “two out of 4”. For the same compound, the “melanosomes per melanocyte, RXRα^ep−/− versus CT melanocytes” value ([2]; DMBA, electron microscopy) was about 10 fold.

In the case of 4-hydroxytamoxifen [OHT], the “efficiency of site-specific recombination in cells expressing the fusion protein” value [3] is listed as at most 80%, the “nuclei strongly labeled with anti-Cre antibodies in the basal layer of the epidermis” value [4] is listed as “about ⅓” and the “nuclei labeled with anti-Cre antibodies in the skin” value [5] is listed as “no positive nucleus”. The “excision levels, K5-Cre-ER^T3 versus K5-Cre-ER^T2 line” value [6] was “similar” and the “effect of the G525R mutation on binding” value [7] was “without adversely affecting the binding”.
